Test results: patent US9861625B2, “Methods and compositions for treating cancer through inhibition of PI3K” (Duke University, priority 2014, dated 2018)
Where two headings read alike, the source gives them in different places.

Columns and labels:
Test in all cases: MTT cell viability assay
Format in all cases: cell-based
Daudi = conditions: Homo sapiens, Burkitt Lymphoma, RPMI 10% FBS
Excerpt: (§1) A total of 60 cell lines representative of different cancer types were obtained from the ATCC and grown and maintained in accordance with the provided guidelines. The cell lines represented the following distinct histologies: mantle cell lymphoma (5 lines: JVM13, Rec1, Mino, JVM2, Jeko); germinal center B-cell derived (“GCB”) DLBCL (19 lines: Farage, BJAB, Ly1, Ly2, Ly7, Ly8, Ly19, HBL2, HT, Karpas422, Pfeiffer, RCK8, RL, Sci-1, Ski, SUDHL4, SUDHL7, Toledo, WSU-NHL); primary mediastinal B-cell lymphoma (“PMBL”) (3 lines: K1106, MEDB1, U2940); Burkitt lymphoma (11 lines: Daudi, CA46, EB1, EB2, EB3, Jijoye, Raji, Ramos, Namwala, BL2, BL41); Hodgkin lymphoma (3 lines: RMPI6666, L1236, L428); activated B-cell derived (“ABC”) DLBCL (6 lines: Ly3, HBL1, TMD8, Ly10, Riva, U2932); multiple myeloma (6 lines: U266, SKMM1, RPMI8226, KMS12, IM9, H929); acute myelogenous leukemia (“AML”) (2 lines: U937, KG1); acute lymphoblastic leukemia (“ALL”) (2 lines: Reh, SR); and T-cell lymphoma (3 lines: Molt4, RPMI8402, Jurkat). The cell lines were tested within six months after resuscitation.
(§2) The 3-(4,5-dimethylthiazol-2-yl)-2,5-diphenyltetrazolium bromide (MTT) cell viability assay was used to determine cell viability in response to drug treatment. Five replicates per concentration tested were carried out in serial dilutions with a total of ten concentrations with a 50% reduction in drug concentration per dilution for each plate. A total of 15 μl of MTT reagent was added to each drug-treated well and incubated for three hours in 37° C. Detergent was added to each drug-treated well and incubated overnight at room temperature without exposure to light. Absorbance was measured at 570 nm using a plate reader from Tecan Group. The IC50 concentration was determined using the publicly available ED50 plus v1.0 software program.

Rec1 = conditions: Homo sapiens; Rec1, MantleCellLymphoma, RPMI 10% FBS
Excerpt: as §1, §2

Jijoye = conditions: Burkitt Lymphoma, RPMI 10% FBS
Excerpt: as §1, §2

L1236 = conditions: L-1236; L1236, Hodgkin Lymphoma, RPMI 10% FBS
Excerpt: as §1, §2

Karpas422 = conditions: Homo sapiens, KARPAS-422; Karpas422, GCB DLBCL, RPMI 10% FBS
Excerpt: as §1, §2

Sci-1 = conditions: Sci-1, GCB DLBCL, RPMI 10% FBS
Excerpt: as §1, §2

LY19 = conditions: LY19, GCB DLBCL, OCI
Excerpt: as §1, §2

LY7 = conditions: LY7, GCB DLBCL, OCI
Excerpt: as §1, §2

Mino = conditions: Homo sapiens, MantleCellLymphoma, RPMI 10% FBS
Excerpt: as §1, §2

IM9 = conditions: Homo sapiens, IM-9; IM9, Multiple Myeloma, RPMI 10% FBS
Excerpt: as §1, §2

EB2 = conditions: Homo sapiens; EB2, Burkitt Lymphoma, RPMI 10% FBS
Excerpt: as §1, §2

CA46 = conditions: Homo sapiens; CA46, Burkitt Lymphoma, RPMI 10% FBS
Excerpt: as §1, §2

EB3 = conditions: Homo sapiens, EB-3; EB3, Burkitt Lymphoma, RPMI 10% FBS
Excerpt: as §1, §2

Molt 4 = conditions: Homo sapiens; Molt 4, T-cell, RPMI 10% FBS
Excerpt: as §1, §2

KG1 = conditions: Homo sapiens, KG-1; KG1, AML, IMDM 20% FBS
Excerpt: as §1, §2

Pfeiffer = conditions: Homo sapiens, GCB DLBCL, RPMI 10% FBS
Excerpt: as §1, §2

BJAB = conditions: Homo sapiens
Excerpt: as §1, §2

Reh = conditions: Homo sapiens, ALL, RPMI 10% FBS
Excerpt: as §1, §2

LY3 = conditions: LY3, ABC DLBCL, OCI
Excerpt: as §1, §2

K1106 = conditions: K1106, PMBL, RPMI 15% FBS
Excerpt: as §1, §2

Jeko = conditions: MantleCellLymphoma, RPMI 10% FBS
Excerpt: as §1, §2

RCK8 = conditions: Homo sapiens; RCK8, GCB DLBCL, RPMI 15% FBS
Excerpt: as §1, §2

EB1 = conditions: EB1, Burkitt Lymphoma, RPMI 10% FBS
Excerpt: as §1, §2

SUDHL4 = conditions: Homo sapiens, SU-DHL-4; SUDHL4, GCB DLBCL, RPMI 15% FBS
Excerpt: as §1, §2

Raji = conditions: Homo sapiens, Burkitt Lymphoma, RPMI 10% FBS
Excerpt: as §1, §2

U937 = conditions: Homo sapiens, U-937; U937, AML, RPMI 10% FBS
Excerpt: as §1, §2

RL = conditions: Homo sapiens, GCB DLBCL, RPMI 10% FBS
Excerpt: as §1, §2

Farage = conditions: GCB DLBCL, RPMI 10% FBS
Excerpt: as §1, §2

TMD8 = conditions: Homo sapiens; TMD8, ABC DLBCL, MEM-α 10% FBS
Excerpt: as §1, §2

[1] = BJAB, GCB DLBCL, RPMI 10% FBS, read-out: IC50

IC50 (Daudi)	IC50 (Karpas422)	IC50 (Molt 4)	SMILES	IC50 (Rec1)	IC50 (Jijoye)	IC50 (L1236)	IC50 (Sci-1)	IC50 (LY19)	IC50 (LY7)	IC50 (Mino)	IC50 (IM9)	IC50 (EB2)	IC50 (CA46)	IC50 (EB3)	IC50 (KG1)	IC50 (Pfeiffer)	IC50 (BJAB; [1])	IC50 (Reh)	IC50 (LY3)	IC50 (K1106)	further results
86.4 nM	85.3 nM	8 nM	COc1ccc(-c2ccc3ncc4c(c3c2)n(-c2ccc(N3CCNCC3)c(C(F)(F)F)c2)c(=O)n4C)cn1 [BGT226]	35.9 nM	13.1 nM	12.4 nM	24.5 nM	33.3 nM	20.4 nM	10.5 nM	201 nM	199 nM	27.6 nM	44.5 nM	25.1 nM	20.8 nM	8.5 nM	13.4 nM	20.4 nM	18.2 nM	IC50 (Jeko): 16.6 nM; IC50 (RCK8): 21.8 nM; IC50 (EB1): 71.6 nM; IC50 (SUDHL4): 51.3 nM; IC50 (Raji): 79.8 nM; IC50 (U937): 11.2 nM; IC50 (RL): 64.1 nM; IC50 (Farage): 162 nM; IC50 (TMD8): 101 nM
1300 nM	2080 nM	1110 nM	Nc1cc(C(F)(F)F)c(-c2cc(N3CCOCC3)nc(N3CCOCC3)n2)cn1 [BKM120]	776 nM	2740 nM	1120 nM	985 nM	1890 nM	2550 nM	460 nM	575 nM	1070 nM	729 nM	655 nM	724 nM	1040 nM	1470 nM	1020 nM	893 nM	1870 nM	IC50 (Jeko): 752 nM; IC50 (RCK8): 3260 nM; IC50 (EB1): 1070 nM; IC50 (SUDHL4): 1110 nM; IC50 (Raji): 2310 nM; IC50 (U937): 895 nM; IC50 (RL): 2600 nM; IC50 (Farage): 752 nM; IC50 (TMD8): 764 nM
46.7 nM	22 nM	168 nM	Cn1c(=O)n(-c2ccc(C(C)(C)C#N)cc2)c2c3cc(-c4cnc5ccccc5c4)ccc3ncc21 [BEZ235]	82.3 nM	140 nM	60 nM	35 nM	224 nM	257 nM	60.8 nM	4500 nM	70.2 nM	28.4 nM	36.8 nM	79.9 nM	17.1 nM	26.9 nM	484 nM	80 nM	536 nM	IC50 (BJAB; BJAB cells, read-out: IC50 concentration): 26.9 nM; IC50 (BJAB; BJAB cells, read-out: observed IC50): 26.9 nM; IC50 (Jeko): 51 nM; IC50 (RCK8): 20 nM; IC50 (EB1): 22.6 nM; IC50 (SUDHL4): 60.8 nM; IC50 (Raji): 300 nM; IC50 (U937): 15 nM; IC50 (RL): 26 nM; IC50 (Farage): 509 nM; IC50 (TMD8): 118 nM
